Experimental data published in paper PMC8399847, “Hybrid Quinolinyl Phosphonates as Heterocyclic Carboxylate Isosteres: Synthesis and Biological Evaluation against Topoisomerase 1B (TOP1B)” (Pharmaceuticals, 2021).

Experiments:
[1] = tested on: leishmanial TOP1B (LTOP1B); assay: LTOP1B relaxation activity assay; type: biochemical, Leishmania; details: 100 µM of compound, 1 min
Experimental: The inhibition of relaxation activity of LTOP1B by the compounds was tested at 100 µM. The reactions were performed for 1 min in the way described in the experimental protocols section. The percentage of inhibition was calculated by measuring the intensity of the band corresponding to the supercoiled DNA when the different DNA topoisomers were separated in an agarose gel.
Purification of leishmanial DNA topoisomerase 1B (LTOP1B) was carried out as reported previously. Shortly, LTOP1B was purified using the deficient in TOP1 activity yeast strain, EKY3 MAT α ura3–52 his3Δ20ting, from the union of the bicistronic expression vector pESC-URA to both subunits of LTOP1B. The yeast cells were grown in a yeast synthetic drop-out medium without uracil (Sigma) supplemented with 2% raffinose (w/v) to OD600: 0.8–1 and induced for 10 h with 2% galactose (w/v). After that, the cells were harvested, washed with cold TEEG buffer (50 mM Tris–HCl pH 7.4, 1 mM EDTA, 1 mM EGTA, 10% glycerol), resuspended in 15 mL of 1× TEEG buffer supplemented with 0.2 M KCl and a protease inhibitors cocktail (Thermo Scientific, Waltham, MA, USA) and lysed. Protein extract obtained was loaded on a 5 mL Heparin Sepharose column (GE Healthcare, MA, USA). LTOP1B enzyme was eluted at 4 °C with a discontinuous gradient of KCl (0.2, 0.4, 0.6 M) in TEEG buffer.
Leishmanial TOP1B activity was tested by the relaxation of supercoiled plasmid DNA assay. Each reaction contained: one unit of purified LTOP1B enzyme, 100 µM of each compound, 0.5 μg of supercoiled pSK DNA, 10 mM Tris-HCl buffer pH 7.5, 5 mM MgCl2, 0.1 mM EDTA, 15 µg/mL bovine serum albumin, and 150 mM KCl. The final volume of each reaction was 20 µL. Reaction mixtures were incubated for 1 min at 37 °C and stopped by the addition of a 4 µL loading buffer (5% sarkosyl, 0.12% bromophenol blue, 25% glycerol). The DNA topoisomers were resolved in 1% agarose gels by electrophoresis in 0.1 M Tris borate EDTA buffer (pH 8.0) at 2 V/cm for 16 h and visualized with UV illumination after ethidium bromide (0.5 μg/mL) staining. The percentage of inhibition was calculated by measuring the intensity of the band corresponding to the supercoiled DNA after separating and staining the different DNA topoisomers. This analysis was performed using the GeneTools from Syngene software (Version 4.3.8, MD, USA).

[2] = tested on: murine splenocytes; assay: Splenocyte viability, Alamar Blue; type: cell-based, BALB/c mice; details: for IC50: Mus musculus, Splenocyte, read-out: IC50 Splenocites; for SI (selectivity index): ratio IC50 splenic cells / EC50 amastigotes
Experimental: The viability of splenocytes cells against the different compounds was measured using the Alamar Blue staining method (Invitrogen, MA, USA). For this purpose, these cells were obtained following the protocol indicated in the previous section, from uninfected mice. Plots of absorbance of viable cells (obtained following manufacturer’s recommendations of Alamar Blue) vs compounds concentration were used to calculate CC50 values. Plots were fitted by nonlinear analysis using the Sigma Plot 10.1 statistical package. The assays were performed by triplicate.
The selectivity index for each compound was calculated as the ratio between the IC50 value for splenic cells and the EC50 value for amastigotes.

[3] = tested on: L. infantum promastigotes; assay: In vitro iRFP-L. infantum promastigotes viability assay; type: cell-based; details: Leishmania infantum; 96 h exposure, EC50 ± SD
Experimental: The effect of the new quinolinylphosphonate derivatives 7 synthesized was assessed on both free-living promastigotes and intramacrophage amastigotes of L. infantum as it is described in experimental protocols. Primary cultures of intramacrophage amastigotes were obtained from splenic explants from 6-weeks infected Balb/c mice with L. infantum-iRFP promastigotes. The infrared fluorescence emitted by both stage forms of the parasite was used as viability criterium, using 0.5% DMSO as negative control (100% viability) and […] AMB as a positive control (0% viability).
A genetically modified strain of L infantum BCN 150, expressing iRFP protein from Rhodopseudomonas palustris bacteriophytochrome (iRFP-L. infantum), was used to obtain the EC50 values of the different compounds against promastigotes, through the detection of the near-infrared radiation emitted by living parasites exposed to tested molecules. Thus, the viability of promastigotes was calculated after recording their fluorescence at 708 nm in an Odyssey (Li-Cor, NE, USA) infrared imaging.
iRFP-L. infantum promastigotes were cultured using M199 medium (Gibco, Thermo Fisher Scientific, MA, USA), supplemented with 25 mM 4-(2-hydroxyethyl)-1-piperazineethanesulfonic acid (HEPES) pH 6.9, […] hemin, 10 mM glutamine, 0.1 mM adenosine, 0.01 mM folic acid, 1× RPMI 1640 vitamin mix (Sigma, Darmstadt, Germany), 10% (v/v) heat-inactivated foetal bovine serum (Gibco, Thermo Fisher Scientific, MA, USA), 50 U/mL penicillin and 50 µg/mL streptomycin. The assay was carried out, seeding 1 × 10^6 cells/mL of iRFP-L. infantum promastigotes into 96-well optical bottom black plates (Thermo Scientific, MA, USA) along with different concentrations of compound to each well. The final concentration of DMSO, the solvent used to prepare the stock solutions of compounds, was never higher than 0.1%. All of the compounds’ concentrations and controls were assayed by triplicate.

[4] = tested on: HEK293 (human embryonic kidney); assay: CCK-8 cytotoxicity assay, HEK293; type: cell-based; details: HEK293, 48 h, CCK-8, 50% growth inhibition
Experimental: The cytotoxicity of the newly synthesized quinolinylphosphonates 7 was evaluated in vitro by testing their antiproliferative activities against several human cancer cell lines: A549 (human lung adenocarcinoma cells), SKOV3 (human ovarian carcinoma), and HEK293 (human embryonic kidney). In order to analyze the selective cytotoxicity facing exclusively cancerous cell lines, cytotoxicity against non-cancerous cell lines (MRC-5, lung fibroblast cells) was also evaluated. Cell counting kit (CCK-8) assay was employed to assess growth inhibition and, cell proliferation inhibitory activities of compounds that are listed in Table 1 as IC50 values. […] According to the data presented in Table 1, in general, all these phosphorated derivatives present higher selective cytotoxicity in the A549 cell line than in the other two cell lines, SKOV3 and HEK293, although slight differences are observed compared to human ovarian carcinoma (SKOV3).
Cells were cultured according to the supplier’s instructions, A549 (ATCC® CCL-185), SKOV3 (ATCC® HTB-77), HEK293 (CLS GmbH), MRC-5 (ATCC® CCL-171™). Cells were seeded in 96-well plates at a density of 2–2.5 × 10^3 cells per well and incubated overnight in 0.1 mL of media supplied with 10% Fetal Bovine Serum (Lonza, Basel, Switzerland) in a 5% CO2 incubator at 37 °C. On day 2, drugs (concentration between 0.5–50 μM) were added and samples were incubated for 48 h. After treatment, 10 μL of cell counting kit-8 was added to each well for an additional 2 h incubation at 37 °C. The absorbance of each well was determined by an Automatic Elisa Reader System at 450 nm wavelength. CPT was purchased from Sigma-Aldrich and used as a positive control.

Row | Compound | LTOP1B Inhibition [1] [%] | IC50 [2] [µM] | SI (selectivity index) [2] | EC50 [3] [µM] | IC50 [4] [µM] | melting point [°C]
1 | CCOP(=O)(OCC)c1cccc2c(-c3ccccc3)cc(-c3cccc4ccccc34)nc12 [7f, Diethyl (2-(naphthalen-1-yl)-4-phenylquinolin-8-yl)phosphonate] | 7.5 | 12.2 ± 1.49 | 0.6 | 20.6 ± 2.19 | 35.7 ± 3.13 | 140 to 142
2 | CC(C)OP(=O)(OC(C)C)c1cccc2c(-c3ccc(F)cc3)cc(-c3ccc(F)c(F)c3)nc12 [7o, Diisopropyl (2-(3,4-difluorophenyl)-4-(4-fluorophenyl)quinolin-8-yl)phosphonate] | 73.27 | 18.6 ± 1.1 | 0.9 | 19.3 ± 1.79 | 21 ± 4.05 | 144 to 146
3 | CCOP(=O)(OCC)c1cccc2c(-c3ccc(F)cc3)cc(-c3ccc(F)cc3)nc12 [7h, Diethyl (2,4-bis(4-fluorophenyl)quinolin-8-yl)phosphonate] | 22.44 | 20.3 ± 7.49 | 0.8 | 8.43 ± 0.92 | 15.7 ± 1.74 | 121 to 123
4 | CCOP(=O)(OCC)c1cccc2c(-c3ccccc3)cc(-c3ccc4ccccc4c3)nc12 [7e, Diethyl (2-(naphthalen-2-yl)-4-phenylquinolin-8-yl)phosphonate] | 18.36 | 51.6 ± 1.52 | 2.5 | 20.4 ± 1.57 | 48.1 ± 6.39 | 135 to 137
5 | CC(C)OP(=O)(OC(C)C)c1cccc2c(-c3ccccc3)cc(-c3ccc(F)cc3)nc12 [7l, Diisopropyl (2-(4-fluorophenyl)-4-phenylquinolin-8-yl)phosphonate] | 3.55 | 22.1 ± 4.7 | 1.1 | 9.57 ± 0.4 | 10.1 ± 1.26 | 107 to 109
6 | CCOP(=O)(OCC)c1cccc2c(-c3ccc(C)cc3)cc(-c3ccc(F)cc3)nc12 [7j, Diethyl (2-(4-fluorophenyl)-4-(p-tolyl)quinolin-8-yl)phosphonate] | 41.21 | 14.5 ± 1.56 | 1.5 | 7.29 ± 0.94 | > 50 | 139 to 141
7 | CC(C)OP(=O)(OC(C)C)c1cccc2c(-c3ccccc3)cc(-c3ccc(F)c(F)c3)nc12 [7m, Diisopropyl (2-(3,4-difluorophenyl)-4-phenylquinolin-8-yl)phosphonate] | 5.41 | 19.8 ± 3.76 | 1.9 | 11.2 ± 0.74 | > 50 | 127 to 129
8 | Cc1ccc(-c2cc(-c3ccc(F)cc3)nc3c(P(=O)(OC(C)C)OC(C)C)cccc23)cc1 [7p, Diisopropyl (2-(4-fluorophenyl)-4-(p-tolyl)quinolin-8-yl)phosphonate] | 41.62 | 21.2 ± 3.5 | 0.9 | 5.01 ± 0.35 | 14.4 ± 1.69 | 121 to 123
